Experimental data reported in US4335127A, “Piperidinylalkyl quinazoline compounds, composition and method of use” (Janssen Pharmaceutica, N.V., priority 1979, dated 1982).

Tests used:
[1] = test system: lesions in the glandular area of the stomach and distension of the stomach induced by compound 48/80 in rats; test: Gastric lesion test: lesions induced by compound 48/80 (Test 2); format: in vivo, rat (male, Wistar inbred strain); details: oral, 2 hours before compound 48/80 (1 mg/kg i.v.); stomachs inspected 4 hours after
Protocol: (§1) The shock, followed by dead, can be avoided if the rats are pretreated with a classical H 1 antagonist.
(§2) Male rats of a Wistar inbred strain, weighing 220-250 g, are starved overnight, water being available ad libitum. The test compounds are administered orally as a solution or as a suspension in aqueous medium. A control rat and a "blank" rat receive the test compound. One hour later 5-[4-(diphenylmethyl)-1-piperazinylmethyl]-1-methyl-1H-benzimidazole-2-methanol is administered subcutaneously to all rats at the dose of 2.5 mg/kg. […] Five minutes after the injection the intensity of purple-blue coloration (cyanosis) of the extremities is scored as 0 (absent), +(moderate) or ++(intense). Four hours after the intravenous injection of compound 48/80 the rats are decapitated and the stomachs are removed. Subsequently the stomachs are inspected for distension and contents (blood, fluid, food) and thoroughly rinsed. The macroscopic lesions are scored from 0 to + ++, 0 corresponding to complete absence of visible lesions and the highest score corresponding to reddish rough patches covering more than half the glandular area.

[2] = test system: Caudal Artery of the Rat (effect of serotonin); test: Antagonistic Activity on the Effect of Serotonin on the Caudal Artery of the Rat (Test 1); details: serotonin 40 ng/ml; 5 minutes after adding the drug; rat caudal artery strips
Protocol: Caudal arteries from fasted male rats (210-235 g) are used in the test. Two helical strips having a length of 5-6 cm and a width of 2 mm are obtained from each artery and mounted vertically in a 100 ml organ bath containing an oxygenated Krebs-Henseleit solution. Submaximal contractions of the arterial strips are produced by adding single doses of serotonin (40 ng/ml) to the organ bath for 2 minutes with each time an interval of 10 minutes. The amplitude of the contraction is measured before and 5 minutes after adding the drug. After washing out, the agonist is added again three times in order to see whether the contraction is restored and normalized. […] In this connection the ED50 -values are the minimal concentrations of the concerned drugs which reduce the amplitude of the contraction to at least 50% of its normal value.

[3] = test system: cyanosis of ears and extremities induced by compound 48/80 in rats; test: Cyanosis of ears and extremities induced by compound 48/80 (Test 2); format: in vivo, rat (male, Wistar inbred strain); details: Rattus norvegicus, po, 5 min; read-out: Cyanosis ED50 (dose at which cyanosis of ears and extremities is completely absent in 50% of the test rats)
Protocol: as §1, §2

[4] = test system: lesions in the glandular area of the stomach and distension of the stomach induced by compound 48/80 in rats; details: rats treated with compound 48/80; cited from earlier work
[5] = test system: cyanosis of ears and extremities induced by compound 48/80 in rats; details: rats treated with compound 48/80; cited from earlier work

For `Cc1nc2ccccc2c(=O)n1CCN1CCC(C(=O)c2ccc(F)cc2)CC1` [3-[2-[4-(4-fluorobenzoyl)-1-piperidinyl]ethyl]-2-methyl-4(3H)-quinazolinone], the “G. lesion ED50 (dose at which distension of the stomach and lesions in the glandular area are completely absent in 50% of the test rats)” value [1] was 0.16 mg/kg, the “Caudal artery ED50 (minimal concentration which reduces the amplitude of the serotonin-induced contraction to at least 50% of its normal value)” value [2] was 0.6 ng/mL and the ED50 [3] was 0.16 mg/kg.

For `O=C(c1ccc(F)cc1)C1CCN(CCCn2c(=O)[nH]c3ccccc3c2=O)CC1`, the “G. lesion ED50 (dose at which distension of the stomach and lesions in the glandular area are completely absent in 50% of the test rats)” value [1] was 2.5 mg/kg and the “Caudal artery ED50 (minimal concentration which reduces the amplitude of the serotonin-induced contraction to at least 50% of its normal value)” value [2] was 1.25 ng/mL.

For `O=C(CCCN1CCC2(CC1)C(=O)NCN2c1ccccc1)c1ccc(F)cc1` [spiperone], the “prevention of the abnormal gastric distension (known serotonin antagonists)” value [4] is listed as “prevent completely”, the “prevention of the lesions in the glandular area of the stomach (known serotonin antagonists)” value [4] is listed as “prevent completely” and the “prevention of the cyanosis of ears and extremities (known serotonin antagonists)” value [5] is listed as “prevent completely”.

In the case of `CN1CCC(=C2c3ccccc3C=Cc3ccccc32)CC1` [cyproheptadine], the “prevention of the abnormal gastric distension (known serotonin antagonists)” value [4] is listed as “prevent completely”, the “prevention of the lesions in the glandular area of the stomach (known serotonin antagonists)” value [4] is listed as “prevent completely” and the “prevention of the cyanosis of ears and extremities (known serotonin antagonists)” value [5] is listed as “prevent completely”.

In the case of `O=C(c1ccc(F)cc1)C1CCN(CCn2c(=O)[nH]c3cc(F)ccc3c2=O)CC1` [7-fluoro-3-[2-[4-(4-fluorobenzoyl)-1-piperidinyl]ethyl]-2,4(1H,3H)-quinazolinedione], the “G. lesion ED50 (dose at which distension of the stomach and lesions in the glandular area are completely absent in 50% of the test rats)” value [1] was 1.25 mg/kg, the “Caudal artery ED50 (minimal concentration which reduces the amplitude of the serotonin-induced contraction to at least 50% of its normal value)” value [2] was 0.7 ng/mL and the ED50 [3] was 0.16 mg/kg.

For `COc1ccc(C(=O)C2CCN(CCn3c(=O)[nH]c4ccccc4c3=O)CC2)cc1`, the “Caudal artery ED50 (minimal concentration which reduces the amplitude of the serotonin-induced contraction to at least 50% of its normal value)” value [2] was 2.5 ng/mL.

With `O=C(c1ccc(F)cc1)C1CCN(CCCn2c(=S)[nH]c3ccccc3c2=O)CC1` [3-[3-[4-(4-fluorobenzoyl)-1-piperidinyl]propyl]-2,3-dihydro-2-thioxo-4(1H)-quinazolinone] the “G. lesion ED50 (dose at which distension of the stomach and lesions in the glandular area are completely absent in 50% of the test rats)” value [1] was 2.5 mg/kg, the “Caudal artery ED50 (minimal concentration which reduces the amplitude of the serotonin-induced contraction to at least 50% of its normal value)” value [2] was 2 ng/mL and the ED50 [3] was 0.63 mg/kg.

In the case of `O=C1NC(CCN2CCC(C(=O)c3ccc(F)cc3)CC2)Nc2ccccc21` (stereo not drawn) [2-[2-[4-(4-fluorobenzoyl)-1-piperidinyl]ethyl]-2,3-dihydro-4(1H)-quinazolinone], the “G. lesion ED50 (dose at which distension of the stomach and lesions in the glandular area are completely absent in 50% of the test rats)” value [1] was 2.5 mg/kg, the “Caudal artery ED50 (minimal concentration which reduces the amplitude of the serotonin-induced contraction to at least 50% of its normal value)” value [2] was 0.7 ng/mL and the ED50 [3] was 1.25 mg/kg.

With `Nc1cc(F)ccc1C(=O)C1CCN(CCn2c(=O)[nH]c3ccccc3c2=O)CC1` [3-[2-[4-(2-amino-4-fluorobenzoyl)-1-piperidinyl]ethyl]-2,4(1H,3H)-quinazolinedione] the “G. lesion ED50 (dose at which distension of the stomach and lesions in the glandular area are completely absent in 50% of the test rats)” value [1] was 1.25 mg/kg, the “Caudal artery ED50 (minimal concentration which reduces the amplitude of the serotonin-induced contraction to at least 50% of its normal value)” value [2] was 0.6 ng/mL and the ED50 [3] was 0.16 mg/kg.

With `O=C(O)/C=C/C(=O)O.O=C(c1ccc(F)cc1)C1CCN(CCCn2cnc3ccccc3c2=O)CC1` [3-[3-[4-(4-fluorobenzoyl)-1-piperidinyl]propyl]-4(3H)-quinazolinone (E)-2-butenedioate (1:1)] the “G. lesion ED50 (dose at which distension of the stomach and lesions in the glandular area are completely absent in 50% of the test rats)” value [1] was 2.5 mg/kg and the “Caudal artery ED50 (minimal concentration which reduces the amplitude of the serotonin-induced contraction to at least 50% of its normal value)” value [2] was 5 ng/mL.

For `O=C(c1ccc(Cl)cc1)C1CCN(CCn2c(=O)[nH]c3ccccc3c2=O)CC1`, the “Caudal artery ED50 (minimal concentration which reduces the amplitude of the serotonin-induced contraction to at least 50% of its normal value)” value [2] was 2.5 ng/mL.

With `O=c1[nH]c2ccccc2c(=O)n1CCN1CCC(C(O)c2ccc(F)cc2)CC1` (stereo not drawn) [3-[2-[4-[(4-fluorophenyl)hydroxymethyl]-1-piperidinyl]ethyl]-2,4(1H,3H)-quinazolinedione] the “G. lesion ED50 (dose at which distension of the stomach and lesions in the glandular area are completely absent in 50% of the test rats)” value [1] was 1.25 mg/kg, the “Caudal artery ED50 (minimal concentration which reduces the amplitude of the serotonin-induced contraction to at least 50% of its normal value)” value [2] was 20 ng/mL and the ED50 [3] was 1.25 mg/kg.

In the case of `O=C(c1ccc(F)cc1)C1CCN(CCn2c(=O)[nH]c3cc(Cl)ccc3c2=O)CC1`, the “G. lesion ED50 (dose at which distension of the stomach and lesions in the glandular area are completely absent in 50% of the test rats)” value [1] was 1.25 mg/kg, the “Caudal artery ED50 (minimal concentration which reduces the amplitude of the serotonin-induced contraction to at least 50% of its normal value)” value [2] was 2 ng/mL and the ED50 [3] was 1.25 mg/kg.

For `COc1ccc2c(=O)n(CCN3CCC(C(=O)c4ccc(F)cc4)CC3)c(=O)[nH]c2c1` [3-[2-[4-(4-fluorobenzoyl)-1-piperidinyl]ethyl]-7-methoxy-2,4(1H,3H)-quinazolinedione], the “G. lesion ED50 (dose at which distension of the stomach and lesions in the glandular area are completely absent in 50% of the test rats)” value [1] was 0.31 mg/kg, the “Caudal artery ED50 (minimal concentration which reduces the amplitude of the serotonin-induced contraction to at least 50% of its normal value)” value [2] was 0.7 ng/mL and the ED50 [3] was 0.16 mg/kg.

In the case of `O=C(O)/C=C/C(=O)O.O=C(c1ccc(F)cc1)C1CCN(CCCN2CNc3ccccc3C2=O)CC1` [3-[3-[4-(4-fluorobenzoyl)-1-piperidinyl]propyl]-2,3-dihydro-4-(1H)-quinazolinone (E)-2-butenedioate (1:1)], the “G. lesion ED50 (dose at which distension of the stomach and lesions in the glandular area are completely absent in 50% of the test rats)” value [1] was no less than 2.5 mg/kg and the “Caudal artery ED50 (minimal concentration which reduces the amplitude of the serotonin-induced contraction to at least 50% of its normal value)” value [2] was 10 ng/mL.

With `O=C(c1ccc(F)cc1)C1CCN(CCn2cnc3ccccc3c2=O)CC1` [3-[2-[4-(4-fluorobenzoyl)-1-piperidinyl]ethyl]-4(3H)-quinazolinone] the “G. lesion ED50 (dose at which distension of the stomach and lesions in the glandular area are completely absent in 50% of the test rats)” value [1] was 0.31 mg/kg, the “Caudal artery ED50 (minimal concentration which reduces the amplitude of the serotonin-induced contraction to at least 50% of its normal value)” value [2] was 0.6 ng/mL and the ED50 [3] was 0.31 mg/kg.

With `O=c1[nH]c2ccccc2c(=O)n1CCN1CCC(C2(c3ccc(F)cc3)OCCO2)CC1` the “G. lesion ED50 (dose at which distension of the stomach and lesions in the glandular area are completely absent in 50% of the test rats)” value [1] was 0.31 mg/kg, the “Caudal artery ED50 (minimal concentration which reduces the amplitude of the serotonin-induced contraction to at least 50% of its normal value)” value [2] was 11 ng/mL and the ED50 [3] was 0.16 mg/kg.

In the case of `Cn1c(=O)n(CCN2CCC(C(=O)c3ccc(F)cc3)CC2)c(=O)c2ccccc21`, the “G. lesion ED50 (dose at which distension of the stomach and lesions in the glandular area are completely absent in 50% of the test rats)” value [1] was 1.25 mg/kg, the “Caudal artery ED50 (minimal concentration which reduces the amplitude of the serotonin-induced contraction to at least 50% of its normal value)” value [2] was 0.7 ng/mL and the ED50 [3] was 0.16 mg/kg.

With `O=C(c1ccc(F)cc1)C1CCN(CCn2c(=S)[nH]c3ccccc3c2=O)CC1` [3-[2-[4-(4-fluorobenzoyl)-1-piperidinyl]ethyl]-2,3-dihydro-2-thioxo-4(1H)-quinazolinone] the “G. lesion ED50 (dose at which distension of the stomach and lesions in the glandular area are completely absent in 50% of the test rats)” value [1] was 0.08 mg/kg, the “Caudal artery ED50 (minimal concentration which reduces the amplitude of the serotonin-induced contraction to at least 50% of its normal value)” value [2] was 0.6 ng/mL and the ED50 [3] was 0.04 mg/kg.

In the case of `O=C(c1ccc(F)cc1)C1CCN(CCN2CNc3ccccc3C2=O)CC1` [3-[2-[4-(4-fluorobenzoyl)-1-piperidinyl]ethyl]-2,3-dihydro-4(1H)-quinazolinone], the “G. lesion ED50 (dose at which distension of the stomach and lesions in the glandular area are completely absent in 50% of the test rats)” value [1] was no less than 2.5 mg/kg and the “Caudal artery ED50 (minimal concentration which reduces the amplitude of the serotonin-induced contraction to at least 50% of its normal value)” value [2] was 5 ng/mL.

In the case of `O=C(c1ccc(F)cc1)C1CCN(CCN2C(=O)Nc3ccccc3C2c2ccccc2)CC1` (stereo not drawn) [drawing 34: R^6=C6H5, Alk=(CH2)2, Ar=4-FC6H4, 3-[2-[4-(4-fluorobenzoyl)-1-piperidinyl]ethyl]-3,4-dihydro-4-phenyl-2(1H)-quinazolinone], the “G. lesion ED50 (dose at which distension of the stomach and lesions in the glandular area are completely absent in 50% of the test rats)” value [1] was 0.08 mg/kg, the “Caudal artery ED50 (minimal concentration which reduces the amplitude of the serotonin-induced contraction to at least 50% of its normal value)” value [2] was 0.6 ng/mL and the ED50 [3] was 0.08 mg/kg.

For `O=C(c1ccc(F)cc1)C1CCN(CCn2c(=O)[nH]c3ccccc3c2=O)CC1` [3-[2-[4-(4-fluorobenzoyl)-1-piperidinyl]ethyl]-2,4-(1H,3H)-quinazolinedione], the “G. lesion ED50 (dose at which distension of the stomach and lesions in the glandular area are completely absent in 50% of the test rats)” value [1] was 0.16 mg/kg, the “Caudal artery ED50 (minimal concentration which reduces the amplitude of the serotonin-induced contraction to at least 50% of its normal value)” value [2] was 0.7 ng/mL and the ED50 [3] was 0.08 mg/kg.

For `O=C(c1ccc(F)cc1)C1CCN(CCN2C(=O)Nc3ccc(Cl)cc3C2c2ccccc2)CC1` (stereo not drawn) [6-chloro-3-[2-[4-(4-fluorobenzoyl)-1-piperidinyl]ethyl]-3,4-dihydro-4-phenyl-2(1H)-quinazolinone], the “G. lesion ED50 (dose at which distension of the stomach and lesions in the glandular area are completely absent in 50% of the test rats)” value [1] was 0.63 mg/kg and the ED50 [3] was 0.63 mg/kg.

With `Cc1ccc2[nH]c(=O)n(CCN3CCC(C(=O)c4ccc(F)cc4)CC3)c(=O)c2c1` the “G. lesion ED50 (dose at which distension of the stomach and lesions in the glandular area are completely absent in 50% of the test rats)” value [1] was 2.5 mg/kg, the “Caudal artery ED50 (minimal concentration which reduces the amplitude of the serotonin-induced contraction to at least 50% of its normal value)” value [2] was 1.3 ng/mL and the ED50 [3] was 0.63 mg/kg.
